From article PMC8333425, “Discovery of a dual Ras and ARF6 inhibitor from a GPCR endocytosis screen” (Nature Communications, 2021)

How the values were obtained:
Test in all cases: KINOMEscan kinase binding assay
[1] = biological target: T1, 384 kinases from the human genome (Homo sapiens, UniProt Q9BXA7); settings: kinase TSSK1B (Entrez TSSK1B)
T1 construct: purchased Eurofin/DiscoverX
Procedure, shortened: (§1)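 A panel of 384 human kinases was profiled by KINOMEscan binding in the presence of 10 µM compound. Kinase–ligand binding was given as percent of DMSO control, averaged from duplicates in a single run, with an S(10) selectivity score.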

[2] = biological target: T2, 384 kinases from the human genome (Homo sapiens, UniProt P49761); settings: kinase CLK3 (Entrez CLK3)
T2 construct: purchased Eurofin/DiscoverX
Procedure, shortened: as §1

[3] = biological target: T3, 384 kinases from the human genome (Homo sapiens, UniProt Q04912); settings: kinase MST1R (Entrez MST1R)
T3 construct: purchased Eurofin/DiscoverX
Procedure, shortened: as §1

[4] = biological target: T4, 384 kinases from the human genome (Homo sapiens, UniProt P36507); settings: kinase MEK2 (Entrez MAP2K2)
T4 construct: purchased Eurofin/DiscoverX
T4 sequence (P36507 whole entry): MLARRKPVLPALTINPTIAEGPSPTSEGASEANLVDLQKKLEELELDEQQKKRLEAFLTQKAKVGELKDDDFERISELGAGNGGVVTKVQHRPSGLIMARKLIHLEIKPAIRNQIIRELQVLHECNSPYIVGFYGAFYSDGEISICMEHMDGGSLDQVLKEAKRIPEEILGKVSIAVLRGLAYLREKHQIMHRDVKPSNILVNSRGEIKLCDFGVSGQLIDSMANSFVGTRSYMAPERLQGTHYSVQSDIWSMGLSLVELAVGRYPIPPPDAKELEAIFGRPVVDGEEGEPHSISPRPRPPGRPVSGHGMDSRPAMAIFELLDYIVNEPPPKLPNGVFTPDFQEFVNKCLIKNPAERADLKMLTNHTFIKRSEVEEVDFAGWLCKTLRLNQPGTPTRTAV
Procedure, shortened: as §1

[5] = biological target: T5, 384 kinases from the human genome (Homo sapiens, UniProt Q8IY84); settings: kinase NIM1 (Entrez MGC42105)
T5 construct: purchased Eurofin/DiscoverX
Procedure, shortened: as §1

[6] = biological target: T6, 384 kinases from the human genome (Homo sapiens, UniProt Q99558); settings: kinase NIK (Entrez MAP3K14)
T6 construct: purchased Eurofin/DiscoverX
Procedure, shortened: as §1

[7] = biological target: T7, 384 kinases from the human genome (Homo sapiens, UniProt P45985); settings: kinase MEK4 (Entrez MAP2K4)
T7 construct: purchased Eurofin/DiscoverX
Procedure, shortened: as §1

[8] = biological target: T8, 384 kinases from the human genome (Homo sapiens, UniProt P21127); settings: kinase CDC2L1 (Entrez CDK11B)
T8 construct: purchased Eurofin/DiscoverX
Procedure, shortened: as §1

[9] = biological target: T9, 384 kinases from the human genome (Homo sapiens, UniProt Q9HCP0); settings: kinase CSNK1G1 (Entrez CSNK1G1)
T9 construct: purchased Eurofin/DiscoverX
T9 sequence (Q9HCP0 whole entry): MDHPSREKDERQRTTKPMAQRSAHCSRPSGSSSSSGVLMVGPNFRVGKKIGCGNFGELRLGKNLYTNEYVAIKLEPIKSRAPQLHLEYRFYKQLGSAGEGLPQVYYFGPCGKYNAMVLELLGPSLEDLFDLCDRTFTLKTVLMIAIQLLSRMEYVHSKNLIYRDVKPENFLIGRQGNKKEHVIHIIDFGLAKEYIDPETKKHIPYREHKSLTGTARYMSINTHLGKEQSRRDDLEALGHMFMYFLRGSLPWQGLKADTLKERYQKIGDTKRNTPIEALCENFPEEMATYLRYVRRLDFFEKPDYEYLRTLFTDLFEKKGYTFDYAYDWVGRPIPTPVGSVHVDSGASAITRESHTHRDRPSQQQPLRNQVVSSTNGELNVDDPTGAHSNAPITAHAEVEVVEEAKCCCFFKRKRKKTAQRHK
Procedure, shortened: as §1

[10] = biological target: T10, 384 kinases from the human genome (Homo sapiens, UniProt O75385); settings: kinase ULK1 (Entrez ULK1)
T10 construct: purchased Eurofin/DiscoverX
Procedure, shortened: as §1

[11] = biological target: T11, 384 kinases from the human genome (Homo sapiens, UniProt O43283); settings: kinase LZK (Entrez MAP3K13)
T11 construct: purchased Eurofin/DiscoverX
Procedure, shortened: as §1

[12] = biological target: T12, 384 kinases from the human genome (Homo sapiens, UniProt Q92918); settings: kinase HPK1 (Entrez MAP4K1)
T12 construct: purchased Eurofin/DiscoverX
Procedure, shortened: as §1

[13] = biological target: T13, 384 kinases from the human genome (Homo sapiens, UniProt Q9UM73); settings: kinase ALK (Entrez ALK)
T13 construct: purchased Eurofin/DiscoverX
Procedure, shortened: as §1

[14] = biological target: T14, 384 kinases from the human genome (Homo sapiens, UniProt P78362); settings: kinase SRPK2 (Entrez SRPK2)
T14 construct: purchased Eurofin/DiscoverX
Procedure, shortened: as §1

[15] = biological target: T15, 384 kinases from the human genome (Homo sapiens, UniProt O75747); settings: kinase PIK3C2G (Entrez PIK3C2G)
T15 construct: purchased Eurofin/DiscoverX
T15 sequence (O75747 whole entry): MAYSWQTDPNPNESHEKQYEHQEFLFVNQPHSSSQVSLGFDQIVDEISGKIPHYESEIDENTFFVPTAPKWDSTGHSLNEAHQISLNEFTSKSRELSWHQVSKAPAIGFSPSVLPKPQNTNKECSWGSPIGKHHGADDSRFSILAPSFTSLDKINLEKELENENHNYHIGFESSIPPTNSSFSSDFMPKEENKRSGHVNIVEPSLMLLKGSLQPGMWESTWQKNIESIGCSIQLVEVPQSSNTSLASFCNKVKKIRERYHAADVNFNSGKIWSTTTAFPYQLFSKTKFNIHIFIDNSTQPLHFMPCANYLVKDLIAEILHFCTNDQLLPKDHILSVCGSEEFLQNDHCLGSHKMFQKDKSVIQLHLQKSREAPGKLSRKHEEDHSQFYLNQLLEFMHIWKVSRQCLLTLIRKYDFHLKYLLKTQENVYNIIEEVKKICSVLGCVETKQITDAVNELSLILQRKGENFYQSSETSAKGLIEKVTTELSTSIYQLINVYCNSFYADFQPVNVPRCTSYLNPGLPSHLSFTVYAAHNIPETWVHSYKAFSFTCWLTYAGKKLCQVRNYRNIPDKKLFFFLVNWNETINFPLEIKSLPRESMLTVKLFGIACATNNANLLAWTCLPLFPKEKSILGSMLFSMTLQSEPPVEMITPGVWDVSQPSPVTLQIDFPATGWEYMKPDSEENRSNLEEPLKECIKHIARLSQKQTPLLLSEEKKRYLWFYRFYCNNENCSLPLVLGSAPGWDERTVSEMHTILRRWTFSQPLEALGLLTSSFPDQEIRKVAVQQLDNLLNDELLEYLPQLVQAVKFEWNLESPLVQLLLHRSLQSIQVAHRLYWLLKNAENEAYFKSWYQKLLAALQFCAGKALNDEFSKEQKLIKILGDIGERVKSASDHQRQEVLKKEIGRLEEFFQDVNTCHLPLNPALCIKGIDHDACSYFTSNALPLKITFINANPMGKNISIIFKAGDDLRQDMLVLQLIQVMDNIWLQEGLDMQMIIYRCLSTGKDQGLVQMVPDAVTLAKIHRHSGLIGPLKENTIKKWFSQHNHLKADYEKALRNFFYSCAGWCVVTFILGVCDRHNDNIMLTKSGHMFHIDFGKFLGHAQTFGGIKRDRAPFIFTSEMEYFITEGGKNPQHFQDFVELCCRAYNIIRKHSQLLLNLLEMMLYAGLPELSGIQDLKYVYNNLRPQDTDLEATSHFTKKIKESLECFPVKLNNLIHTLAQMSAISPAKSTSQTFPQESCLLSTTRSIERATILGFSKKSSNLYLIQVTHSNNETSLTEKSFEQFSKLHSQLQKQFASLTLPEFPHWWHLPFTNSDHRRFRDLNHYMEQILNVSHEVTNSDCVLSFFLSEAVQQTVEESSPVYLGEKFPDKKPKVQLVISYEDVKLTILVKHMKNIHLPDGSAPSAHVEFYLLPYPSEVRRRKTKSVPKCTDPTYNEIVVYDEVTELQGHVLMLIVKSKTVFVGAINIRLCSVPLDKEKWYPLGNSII
Procedure, shortened: as §1

[16] = biological target: T16, 384 kinases from the human genome (Homo sapiens, UniProt P15735); settings: kinase PHKG2 (Entrez PHKG2)
T16 construct: purchased Eurofin/DiscoverX
Procedure, shortened: as §1

[17] = biological target: T17, 384 kinases from the human genome (Homo sapiens, UniProt Q13177); settings: kinase PAK2 (Entrez PAK2)
T17 construct: purchased Eurofin/DiscoverX
Procedure, shortened: as §1

[18] = biological target: T18, 384 kinases from the human genome (Homo sapiens, UniProt Q96L34); settings: kinase MARK4 (Entrez MARK4)
T18 construct: purchased Eurofin/DiscoverX
T18 sequence (Q96L34 whole entry): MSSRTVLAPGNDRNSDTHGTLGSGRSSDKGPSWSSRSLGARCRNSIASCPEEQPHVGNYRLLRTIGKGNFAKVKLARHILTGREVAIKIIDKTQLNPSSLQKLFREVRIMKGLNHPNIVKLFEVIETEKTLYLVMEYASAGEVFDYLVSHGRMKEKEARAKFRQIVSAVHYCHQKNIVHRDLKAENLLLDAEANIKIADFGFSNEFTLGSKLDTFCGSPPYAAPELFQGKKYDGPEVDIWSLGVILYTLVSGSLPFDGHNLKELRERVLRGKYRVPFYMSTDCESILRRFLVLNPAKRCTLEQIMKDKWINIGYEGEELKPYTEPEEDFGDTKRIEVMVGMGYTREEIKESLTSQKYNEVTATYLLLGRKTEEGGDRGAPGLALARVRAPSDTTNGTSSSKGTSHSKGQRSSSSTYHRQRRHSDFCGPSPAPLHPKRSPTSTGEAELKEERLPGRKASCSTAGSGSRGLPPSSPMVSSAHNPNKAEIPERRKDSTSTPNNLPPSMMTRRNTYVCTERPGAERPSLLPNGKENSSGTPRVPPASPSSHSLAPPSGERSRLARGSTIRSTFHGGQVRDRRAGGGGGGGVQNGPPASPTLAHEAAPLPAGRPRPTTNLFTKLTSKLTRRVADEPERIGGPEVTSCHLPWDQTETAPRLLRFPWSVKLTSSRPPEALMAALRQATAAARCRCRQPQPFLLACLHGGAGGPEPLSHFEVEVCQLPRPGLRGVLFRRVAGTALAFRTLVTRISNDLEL
Procedure, shortened: as §1

[19] = biological target: T19, 384 kinases from the human genome (Homo sapiens, UniProt P08069); settings: kinase IGF1R (Entrez IGF1R)
T19 construct: purchased Eurofin/DiscoverX
Procedure, shortened: as §1

[20] = biological target: T20, 384 kinases from the human genome (Homo sapiens, UniProt Q16539); settings: kinase p38-alpha (Entrez MAPK14)
T20 construct: purchased Eurofin/DiscoverX
T20 sequence (Q16539 whole entry): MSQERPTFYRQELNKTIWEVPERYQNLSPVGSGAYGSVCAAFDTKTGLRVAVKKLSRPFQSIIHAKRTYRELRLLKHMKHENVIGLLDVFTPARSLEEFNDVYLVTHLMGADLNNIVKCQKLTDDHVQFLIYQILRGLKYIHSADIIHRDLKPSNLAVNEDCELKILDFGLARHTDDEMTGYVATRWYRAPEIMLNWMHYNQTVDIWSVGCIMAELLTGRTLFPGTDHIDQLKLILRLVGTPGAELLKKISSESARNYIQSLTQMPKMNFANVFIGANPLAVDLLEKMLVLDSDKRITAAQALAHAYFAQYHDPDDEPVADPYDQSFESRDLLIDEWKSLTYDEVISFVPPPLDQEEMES
Procedure, shortened: as §1

[21] = biological target: T21, 384 kinases from the human genome (Homo sapiens, UniProt P33981); settings: kinase TTK (Entrez TTK)
T21 construct: purchased Eurofin/DiscoverX
Procedure, shortened: as §1

[22] = biological target: T22, 384 kinases from the human genome (Homo sapiens, UniProt P53350); settings: kinase PLK1 (Entrez PLK1)
T22 construct: purchased Eurofin/DiscoverX
T22 sequence (P53350 whole entry): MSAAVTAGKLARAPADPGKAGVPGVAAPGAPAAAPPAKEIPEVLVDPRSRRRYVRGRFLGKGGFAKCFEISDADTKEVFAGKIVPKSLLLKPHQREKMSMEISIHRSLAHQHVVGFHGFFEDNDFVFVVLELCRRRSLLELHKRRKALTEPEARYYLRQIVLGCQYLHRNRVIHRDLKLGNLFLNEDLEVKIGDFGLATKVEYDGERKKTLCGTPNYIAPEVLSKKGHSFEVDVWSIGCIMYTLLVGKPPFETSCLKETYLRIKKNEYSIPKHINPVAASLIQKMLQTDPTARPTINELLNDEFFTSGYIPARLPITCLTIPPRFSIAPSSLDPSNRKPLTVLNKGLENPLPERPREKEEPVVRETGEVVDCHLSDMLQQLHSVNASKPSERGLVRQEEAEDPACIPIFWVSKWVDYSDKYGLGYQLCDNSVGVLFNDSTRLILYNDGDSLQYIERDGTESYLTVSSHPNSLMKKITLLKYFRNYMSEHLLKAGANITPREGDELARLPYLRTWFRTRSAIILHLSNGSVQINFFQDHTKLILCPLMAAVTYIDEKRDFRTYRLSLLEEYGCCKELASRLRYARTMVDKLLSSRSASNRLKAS
Procedure, shortened: as §1

[23] = biological target: T23, 384 kinases from the human genome (Homo sapiens, UniProt Q9HBY8); settings: kinase SGK2 (Entrez SGK2)
T23 construct: purchased Eurofin/DiscoverX
Procedure, shortened: as §1

[24] = biological target: T24, 384 kinases from the human genome (Homo sapiens, UniProt O00750); settings: kinase PIK3C2B (Entrez PIK3C2B)
T24 construct: purchased Eurofin/DiscoverX
Procedure, shortened: as §1

[25] = biological target: T25, 384 kinases from the human genome (Homo sapiens, UniProt P27037); settings: kinase ACVR2A (Entrez ACVR2A)
T25 construct: purchased Eurofin/DiscoverX
Procedure, shortened: as §1

[26] = biological target: T26, 384 kinases from the human genome (Homo sapiens, UniProt O60285); settings: kinase ARK5 (Entrez NUAK1)
T26 construct: purchased Eurofin/DiscoverX
T26 sequence (O60285 whole entry): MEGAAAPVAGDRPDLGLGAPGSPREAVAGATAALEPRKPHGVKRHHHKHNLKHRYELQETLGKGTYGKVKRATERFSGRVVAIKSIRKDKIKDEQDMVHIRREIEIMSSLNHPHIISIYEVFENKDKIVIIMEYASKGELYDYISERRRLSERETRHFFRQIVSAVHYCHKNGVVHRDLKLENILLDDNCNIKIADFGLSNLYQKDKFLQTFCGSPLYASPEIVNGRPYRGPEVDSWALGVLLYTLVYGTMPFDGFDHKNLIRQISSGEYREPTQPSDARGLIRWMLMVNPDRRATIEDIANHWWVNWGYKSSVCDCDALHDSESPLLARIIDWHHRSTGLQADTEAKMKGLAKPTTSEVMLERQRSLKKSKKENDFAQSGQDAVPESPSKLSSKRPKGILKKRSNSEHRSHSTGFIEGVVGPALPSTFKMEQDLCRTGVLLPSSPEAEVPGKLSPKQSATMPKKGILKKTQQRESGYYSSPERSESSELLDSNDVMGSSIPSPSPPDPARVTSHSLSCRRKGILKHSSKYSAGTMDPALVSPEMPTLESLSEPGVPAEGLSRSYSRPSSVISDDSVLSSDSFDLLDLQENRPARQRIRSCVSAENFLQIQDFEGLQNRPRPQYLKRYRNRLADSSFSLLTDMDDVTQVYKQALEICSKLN
Procedure, shortened: as §1

T1 sequence (Q9BXA7 whole entry): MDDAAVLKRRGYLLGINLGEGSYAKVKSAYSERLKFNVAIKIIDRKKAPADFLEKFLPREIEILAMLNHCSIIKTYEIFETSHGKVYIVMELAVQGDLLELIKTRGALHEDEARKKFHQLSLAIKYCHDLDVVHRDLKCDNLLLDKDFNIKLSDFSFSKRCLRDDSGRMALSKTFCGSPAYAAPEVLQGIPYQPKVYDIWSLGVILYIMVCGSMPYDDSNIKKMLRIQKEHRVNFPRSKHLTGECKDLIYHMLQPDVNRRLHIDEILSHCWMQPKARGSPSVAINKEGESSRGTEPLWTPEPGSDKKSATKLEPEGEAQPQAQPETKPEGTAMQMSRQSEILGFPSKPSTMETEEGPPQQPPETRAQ

CC(C)C(=O)N1CCN(c2ccc(NC(=O)c3cc4ccccc4o3)cc2Cl)CC1 [Compound 21]
Percent Control [1]: 100%
Percent Control [2]: 100%
Percent Control [3]: 91%
Percent Control [4]: 76%
Percent Control [5]: 77%
Percent Control [6]: 66%
Percent Control [7]: 93%
Percent Control [8]: 100%
Percent Control [9]: 87%
Percent Control [10]: 97%
Percent Control [11]: 100%
Percent Control [12]: 75%
Percent Control [13]: 89%
Percent Control [14]: 80%
Percent Control [15]: 100%
Percent Control [16]: 100%
Percent Control [17]: 100%
Percent Control [18]: 98%
Percent Control [19]: 76%
Percent Control [20]: 100%
Percent Control [21]: 92%
Percent Control [22]: 77%
Percent Control [23]: 100%
Percent Control [24]: 98%
Percent Control [25]: 100%
Percent Control [26]: 97%
